From US20150344466A1 (SUMITOMO CHEMICAL COMPANY, LIMITED, priority 2013, published 2015) come the findings set out here.

Format in all cases: in vivo
Experiment [1] deals with Blattella germanica. The experiment in a line: Knockdown spray test on Blattella germanica, 2.0% w/v oil formulation (Test Example 1). The conditions noted are these: topical, 0.25 h, active ingredient 2.0% w/v, 1.5 ml sprayed, within 15 minutes, read-out: knockdown rate of the test insects within 15 minutes. As to the method:
Ten Blattella germanica (5 males and 5 females) were released in a test container (8.75 cm in diameter, 7.5 cm in height, and the bottom made of 16 mesh metallic wire) with the inner wall on which butter was applied, and the container was placed on the bottom of a test chamber (bottom: 46 cm×46 cm, height: 70 cm). From a height of 60 cm above the upper surface of the container, 1.5 ml of the test drug solution was sprayed using a spray gun (a spraying pressure of 0.42 kg/cm^2). Thirty seconds after spraying, the container was taken out from the test chamber, and after 2 minutes, 5 minutes and 15 minutes, the number of knocked-down insects was counted to obtain a knockdown rate. The knockdown rate was calculated by the following equation.
Knockdown Rate (%)=(Number of Knocked-down Insects/Number of Tested Insects)×100

The test system of experiment [2] is Culex pipiens pallens. The experiment in a line: Knockdown spray test on adult Culex pipiens pallens (Test Example 4). As to conditions: topical, 0.25 h, active ingredient 0.1% w/v, 0.5 ml sprayed, within 15 minutes, read-out: knockdown rate of the test insects within 15 minutes. The method in brief: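 Knockdown counts were taken 2, 5 and 15 min after spraying and expressed as percent of the 10 adults tested. For the spray, 0.5 ml of solution was applied by spray gun (0.4 kg/cm^2) from 30 cm above a gauze-covered cup in a test chamber; the cup was taken out right after spraying.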

Experiment [3] concerns Plutella xylostella. Briefly: Foliar spray test on Plutella xylostella on cabbage (Test Example 10). As to conditions: 120 h, third instar larvae of Plutella xylostella on cabbage, 500 ppm spray 20 ml/cup, after five days, read-out: controlling value. As to the method: On the other hand, cabbage was planted in a polyethylene cup, and grown until the third-fourth true leaf was spread. The test spray solution was sprayed to the cabbage at a ratio of 20 ml/cup. After the drug solution sprayed on the cabbage was dried, 10 third instar larvae of Plutella xylostella were allowed to parasitize the cabbage. After five days, the number of Plutella xylostella was investigated, and the controlling value was calculated according to the following standard. Controlling value (%)={1−(Cb×Tai)/(Cai×Tb)}×100 In the equation, the symbols represent as follows. Cb: the number of insects in a non-treated section before treatment Cai: the number of insects in a non-treated section on observation Tb: the number of insects in a treated section before treatment Tai: the number of insects in a treated section on observation

The test system of experiment [4] is Blattella germanica. Briefly: Knockdown spray test on Blattella germanica, 0.1% w/v oil formulation (Test Example 2). As to conditions: topical, 0.25 h, active ingredient 0.1% w/v, 1.5 ml sprayed, within 15 minutes, read-out: knockdown rate of the test insects within 15 minutes. The method in brief: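 Ten German cockroaches (5 males, 5 females) in a mesh-bottomed, butter-walled container were sprayed with 1.5 ml test solution from 60 cm at 0.42 kg/cm^2 inside a chamber.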

The test system of experiment [5] is Musca domestica. The experiment in a line: Filter paper/sucrose bait death rate test on Musca domestica (Test Example 5). The conditions noted are these: female imagoes of Musca domestica, 0.7 ml on filter paper, after 24 hours. As to the method:
A filter paper having a diameter of 5.5 cm was spread on the bottom of a polyethylene cup having the same diameter and 0.7 ml of the test drug solution was added dropwise onto the filter paper, and 30 mg of sucrose was uniformly placed as bait.
Into the polyethylene cup, 10 female imagoes of Musca domestica were released, and the cup was sealed with a lid. After 24 hours, the life and death of Musca domestica was examined, and the death rate was calculated. The death rate was calculated by the following equation.
Death rate (%)=(Number of dead insects/Number of tested insects)×100

Molecules are shown by their SMILES.

Take `CCCc1cc(C(=O)NCC2CCOC2)no1` (stereo not shown) [(10), N-(tetrahydrofuran-3-ylmethyl)-5-propylisoxazole-3-carboxamide]: the pest or weed control at 2 % strength in experiment [1] was at least 80%.

As for `CCCCCc1cc(C(=O)NCC2CCOC2)no1` (stereo not shown) [(12), N-(tetrahydrofuran-3-ylmethyl)-5-pentylisoxazole-3-carboxamide], in experiment [1], the pest or weed control at 2 % strength is at least 80%. The pest or weed control at 0.1 % strength in experiment [2] is at least 80%.

Consider `O=C(NCC1CCOC1)c1cc(COC2CCCC2)on1` (stereo not shown) [(19), N-(tetrahydrofuran-3-ylmethyl)-5-cyclopentyloxymethylisoxazole-3-carboxamide], for which, in experiment [1], the pest or weed control at 2 % strength is at least 80%.

With `O=C(NCC1CCOC1)c1cc(COCCc2ccccc2)on1` (stereo not shown) [(25), N-(tetrahydrofuran-3-ylmethyl)-5-(2-phenylethyl)oxymethylisoxazole-3-carboxamide], the pest or weed control at 2 % strength in experiment [1] was at least 80%. In experiment [2], the pest or weed control at 0.1 % strength was at least 80%.

On to `CC(OCc1cc(C(=O)NCC2CCOC2)no1)c1ccc2ccccc2c1` (stereo not shown) [(28), N-(tetrahydrofuran-3-ylmethyl)-5-[1-(2-naphthyl)ethyl]oxymethylisoxazole-3-carboxamide], for which, in experiment [1], the pest or weed control at 2 % strength is at least 80%. In addition, the pest or weed control at 0.1 % strength in experiment [2] was at least 80%.

For `COCc1c(F)c(F)c(COCc2cc(C(=O)NCC3CCOC3)no2)c(F)c1F` (stereo not shown) [(29), N-(tetrahydrofuran-3-ylmethyl)-5-(4-methoxymethyl-2,3,5,6-tetrafluorobenzyl)oxymethylisoxazole-3-carboxamide], the pest or weed control at 2 % strength in experiment [1] is at least 80%. Besides, the pest or weed control at 0.1 % strength in experiment [2] was at least 80%.

In the case of `O=C(NCC1CCCO1)c1cc(COCc2ccccc2)on1` (stereo not shown) [(32), N-(tetrahydrofuran-2-ylmethyl)-5-benzyloxymethylisoxazole-3-carboxamide], in experiment [1], the pest or weed control at 2 % strength was at least 80%. Besides, the pest or weed control at 0.1 % strength in experiment [2] was at least 80%.

With `O=C(NCC1CCCOC1)c1cc(COCc2ccccc2)on1` (stereo not shown) [(37), N-(tetrahydropyran-3-ylmethyl)-5-benzyloxymethylisoxazole-3-carboxamide], in experiment [1], the pest or weed control at 2 % strength is at least 80%. Also, in experiment [2], the pest or weed control at 0.1 % strength is at least 80%.

Turning to `CCC1(CNC(=O)c2cc(COCc3ccccc3)on2)COCOC1` [(38), N-[5-ethyl-5-(1,3-dioxanylmethyl)]-5-benzyloxymethylisoxazole-3-carboxamide], the pest or weed control at 2 % strength in experiment [1] was at least 80%. Further, in experiment [2], the pest or weed control at 0.1 % strength is at least 80%.

In the case of `Cc1cccc(COCc2cc(C(=O)NCC3CCOCC3)no2)c1` [(83), N-(tetrahydropyran-4-ylmethyl)-5-(3-methylbenzyloxymethyl)isoxazole-3-carboxamide], the pest or weed control at 500 ppm in experiment [3] was at least 90%. Besides, the pest or weed control at 0.1 % strength in experiment [2] and in experiment [4] was at least 80% throughout.

Take `Cc1ccc(COCc2cc(C(=O)NCC3CCOC3)no2)cc1` (stereo not shown) [(97), N-(tetrahydrofuran-3-ylmethyl)-5-(4-methylbenzyloxymethyl)isoxazole-3-carboxamide]: the pest or weed control at 500 ppm in experiment [3] is at least 90%. For the same compound, the pest or weed control at 0.1 % strength in experiment [2] and in experiment [4] was at least 80% in each case.

As for `Cc1ccc(COCc2cc(C(=O)NCC3CCOCC3)no2)cc1` [(98), N-(tetrahydropyran-4-ylmethyl)-5-(4-methylbenzyloxymethyl)isoxazole-3-carboxamide], the pest or weed control at 500 ppm in experiment [3] was at least 90%. Moreover, the pest or weed control at 0.1 % strength in experiment [2] and in experiment [4] was at least 80% throughout.

On to `COc1ccc(COCc2cc(C(=O)NCC3CCOCC3)no2)cc1` [(100), N-(tetrahydropyran-4-ylmethyl)-5-(4-methoxybenzyloxymethyl) isoxazole-3-carboxamide], for which the pest or weed control at 500 ppm in experiment [5] and in experiment [3] was at least 90% throughout. Also, the pest or weed control at 0.1 % strength in experiment [2] and in experiment [4] was at least 80% in each case.

As to `CSc1ccc(COCc2cc(C(=O)NCC3CCOC3)no2)cc1` (stereo not shown) [(103), N-(tetrahydrofuran-3-ylmethyl)-5-(4-methylthiobenzyloxymethyl)isoxazole-3-carboxamide], in experiment [3], the pest or weed control at 500 ppm is at least 90%. The pest or weed control at 0.1 % strength in experiment [2] and in experiment [4] was at least 80% in each case.

Consider `CSc1ccc(COCc2cc(C(=O)NCC3CCOCC3)no2)cc1` [(104), N-(tetrahydropyran-4-ylmethyl)-5-(4-methylthiobenzyloxymethyl)isoxazole-3-carboxamide], for which the pest or weed control at 500 ppm in experiment [3] is at least 90%. For the same compound, the pest or weed control at 0.1 % strength in experiment [2] and in experiment [4] was at least 80% each time.

On to `O=C(NCC1CCOC1)c1cc(COCc2cccc(Oc3ccccc3)c2)on1` (stereo not shown) [(114), N-(tetrahydrofuran-3-ylmethyl)-5-(3-phenoxybenzyloxymethyl) isoxazole-3-carboxamide], for which the pest or weed control at 2 % strength in experiment [1] was at least 80%. In addition, the pest or weed control at 0.1 % strength in experiment [2] was at least 80%.

Consider `O=C(NCC1CCOC1)c1cc(COCCOc2ccccc2)on1` (stereo not shown) [(149), N-(tetrahydrofuran-3-ylmethyl)-5-(2-phenoxyethoxymethyl)isoxazole-3-carboxamide], for which, in experiment [1], the pest or weed control at 2 % strength was at least 80%. Besides, the pest or weed control at 0.1 % strength in experiment [2] and in experiment [4] was at least 80% each time.

In the case of `Cc1c(C(=O)NCC2CCOC2)noc1Cc1cccc(F)c1` (stereo not shown) [(294), N-(tetrahydrofuran-3-ylmethyl)-4-methyl-5-(3-fluorobezyl)isoxazole-3-carboxamide], the pest or weed control at 500 ppm in experiment [5] and in experiment [3] was at least 90% each time. For the same compound, the pest or weed control at 0.1 % strength in experiment [2] and in experiment [4] was at least 80% throughout.

In turn, `O=C(NCC1CCOC1)c1cc(Cc2ccsc2)on1` (stereo not shown) [(309), N-(tetrahydrofuran-3-ylmethyl)-5-(3-thienylmethyl)isoxazole-3-carboxamide] registered a pest or weed control at 500 ppm in experiment [5] of at least 90%. The pest or weed control at 0.1 % strength in experiment [2] and in experiment [4] was at least 80% throughout.

As to `COc1ccc(Cc2cc(C(=O)NCC3CCOC3)no2)cc1` (stereo not shown) [(314), N-(tetrahydrofuran-3-ylmethyl)-5-(4-methoxybenzyl)isoxazole-3-carboxamide], the pest or weed control at 500 ppm in experiment [5] was at least 90%. For the same compound, the pest or weed control at 0.1 % strength in experiment [2] and in experiment [4] was at least 80% in each case.

In turn, `O=C(NCC1CCOC1)c1cc(Cc2ccc(F)cc2)on1` (stereo not shown) [(319), N-(tetrahydrofuran-3-ylmethyl)-5-(4-fluorobenzyl)isoxazole-3-carboxamide] registered a pest or weed control at 500 ppm in experiment [5] of at least 90%. Moreover, the pest or weed control at 0.1 % strength in experiment [2] and in experiment [4] was at least 80% in each case.

In experiment [5], `O=C(NCC1CCOC1)c1cc(Cc2ccc(Cl)cc2)on1` (stereo not shown) [(322), N-(tetrahydrofuran-3-ylmethyl)-5-(4-chlorobenzyl)isoxazole-3-carboxamide] came in with a pest or weed control at 500 ppm of at least 90%. For the same compound, the pest or weed control at 0.1 % strength in experiment [2] and in experiment [4] was at least 80% in each case.

Compound `O=C(NCC1CCOC1)c1cc(Cc2ccc(F)c(F)c2F)on1` (stereo not shown) [(324), N-(tetrahydrofuran-3-ylmethyl)-5-(2,3,4-trifluorobenzyl)isoxazole-3-carboxamide] yielded a pest or weed control at 500 ppm in experiment [5] of at least 90%. The pest or weed control at 0.1 % strength in experiment [2] and in experiment [4] was at least 80% throughout.

As for `O=C(NCC1COC1)c1cc(COCc2ccccc2)on1` [(337), N-(oxetan-3-ylmethyl)-5-benrzyloxymethylisoxazole-3-carboxamide], the pest or weed control at 2 % strength in experiment [1] is at least 80%. Besides, the pest or weed control at 0.1 % strength in experiment [2] was at least 80%.
